From patent US20230212222A1 (ANYGEN CO., LTD., priority 2020, published 2023) come the findings set out here.

Square brackets hold non-standard residues; d marks the D form. Ends that are not written are not given here. Peptide text beside a SMILES is read from it. * marks the point of attachment. His(Trt) = N[C@@H](Cc1cn(C(c2ccccc2)(c2ccccc2)c2ccccc2)cn1)C(=O)O; dHis(Trt) = N[C@H](Cc1cn(C(c2ccccc2)(c2ccccc2)c2ccccc2)cn1)C(=O)O; Biotin = O=C1N[C@H]2[C@H](CS[C@H]2CCCCC(=O)*)N1; Bip = N[C@@H](Cc1ccc(-c2ccccc2)cc1)C(=O)O; dPhe(4-Br) = N[C@H](Cc1ccc(Br)cc1)C(=O)O; dPhe(4-Cl) = N[C@H](Cc1ccc(Cl)cc1)C(=O)O; Trt = c1ccc(C(c2ccccc2)(c2ccccc2)*)cc1; dPhe(4-F) = N[C@H](Cc1ccc(F)cc1)C(=O)O; Octanoyl = CCCCCCCC(=O)*

The target of data set [1] is T1, GPR39 (Homo sapiens, UniProt O43194).
T1 sequence (O43194 1-453): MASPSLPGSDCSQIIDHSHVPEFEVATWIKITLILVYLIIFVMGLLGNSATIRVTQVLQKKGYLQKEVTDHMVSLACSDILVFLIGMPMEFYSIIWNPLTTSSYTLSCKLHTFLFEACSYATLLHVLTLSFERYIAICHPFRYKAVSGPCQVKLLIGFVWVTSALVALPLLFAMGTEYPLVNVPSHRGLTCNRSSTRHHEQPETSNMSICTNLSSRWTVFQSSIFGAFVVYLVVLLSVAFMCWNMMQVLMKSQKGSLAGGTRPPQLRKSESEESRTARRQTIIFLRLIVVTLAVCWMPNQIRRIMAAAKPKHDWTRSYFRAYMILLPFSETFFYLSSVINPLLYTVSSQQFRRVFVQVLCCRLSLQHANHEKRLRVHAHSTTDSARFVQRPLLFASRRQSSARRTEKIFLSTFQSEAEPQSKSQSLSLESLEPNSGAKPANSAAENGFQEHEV
Experimental: Specifically, the fibroblast cell line CV-1 (1×10^5 cells/ml, Korea Cell Line Bank) was cultured in a 96 well cell culture plate for 24 hours, and then treated with GPR39 inserted into adenovirus and SRE (serum response element) luciferase at 50 MOI (multiplicity of infection) and 25 MOI virus for 3 hours, respectively, and then cultured for 24 hours.

Data set [2] has as its target T2, GPR39 (G protein-coupled receptor 39) (Homo sapiens (Human), UniProt O43194 1-453).
T2 sequence: T1 sequence (O43194 1-453)
As to the kind of experiment: cell-based or functional assay.

Consider `CCCCCCCC(=O)NCCCC[C@H](NC(=O)[C@@H](N)Cc1cn(C(c2ccccc2)(c2ccccc2)c2ccccc2)cn1)C(=O)N[C@H](Cc1ccc(Br)cc1)C(=O)N[C@@H](Cc1ccc(O)cc1)C(=O)O` [HKFY-29, ((R)-2-((S)-2-((S)-2-amino-3-(1-trityl-1H-imidazol-4-yl)propanamido)-6-octanamidohexanamido)-3-(4-bromophenyl)propanoyl)-L-tyrosine] (H-[His(Trt)]K(Octanoyl)[dPhe(4-Br)]Y-OH), for which the “ECmax (-fold induction over basal)” value in data set [1] is recorded as 26.8 ± 1.87 -fold induction over basal.
Still for that read-out and setting: the result for `CCCCCCCC(=O)NCCCC[C@H](NC(=O)[C@@H](N)Cc1cn(C(c2ccccc2)(c2ccccc2)c2ccccc2)cn1)C(=O)N[C@H](Cc1ccc(Cl)cc1)C(=O)N[C@H](Cc1ccc(O)cc1)C(=O)O` [HKFY-15, ((R)-2-((S)-2-((S)-2-amino-3-(1-trityl-1H-imidazol-4-yl)propanamido)-6-octanamidohexanamido)-3-(4-chlorophenyl)propanoyl)-D-tyrosine] (H-[His(Trt)]K(Octanoyl)[dPhe(4-Cl)][dY]-OH) reads 24.7 ± 2.6 -fold induction over basal; that for `CCCCCCCC(=O)NCCCC[C@H](NC(=O)[C@H](N)Cc1cn(C(c2ccccc2)c2ccccc2)cn1)C(=O)N[C@H](Cc1ccc(C)cc1)C(=O)N[C@@H](Cc1ccc(O)cc1)C(=O)O` [HKFY-62, ((R)-2-((S)-2-((R)-2-amino-3-(1-benzhydryl-1H-imidazol-4-yl)propanamido)-6-octanamidohexanamido)-3-(p-tolyl)propanoyl)-L-tyrosine], 28.1 ± 2.1 -fold induction over basal.
Still for that read-out and setting: the result for `CCCCCCCC(=O)NCCCC[C@H](NC(=O)[C@@H](N)Cc1cn([C@H](c2ccccc2)c2ccc(C)cc2)cn1)C(=O)N[C@@H](Cc1ccccc1)C(=O)N[C@@H](Cc1ccc(O)cc1)C(=O)O` [HKFY-22, N6-octanoyl-N2-(Nt-((R)-phenyl(p-tolyl)methyl)-L-histidyl)-L-lysyl-L-phenylalanyl-L-tyrosine] reads 21.3 ± 1.8 -fold induction over basal.
The same measure, in the same setting: the result for `CCCCCCCC(=O)NCCCC[C@H](NC(=O)[C@@H](N)Cc1cn(C(c2ccccc2)(c2ccccc2)c2ccccc2)cn1)C(=O)N[C@@H](Cc1ccccc1)C(=O)N[C@@H](Cc1ccc(O)cc1)C(=O)N[C@@H](Cc1c[nH]c2ccccc12)C(=O)O` [HKFY-44, N6-octanoyl-N2-(Nt-trityl-L-histidyl)-L-lysyl-L-phenylalanyl-L-tyrosyl-L-tryptophan] (H-[His(Trt)]K(Octanoyl)FYW-OH) reads 20 ± 0.47 -fold induction over basal; that for `CCCCCCCC(=O)NCCCC[C@H](N)C(=O)N[C@@H](Cc1ccccc1)C(=O)N[C@@H](Cc1ccc(O)cc1)C(=O)O` [HKFY-54, N6-octanoyl-L-lysyl-L-phenylalanyl-L-tyrosine] (H-Lys(Octanoyl)-Phe-Tyr-OH), 7.8 ± 2.5 -fold induction over basal.
`CCCCCCCC(=O)NCCCC[C@H](NC(=O)[C@H](N)Cc1cn(C(c2ccccc2)(c2ccccc2)c2ccccc2)cn1)C(=O)N[C@@H](Cc1ccccc1)C(=O)N[C@@H](Cc1ccc(O)cc1)C(=O)O` [HKFY-4, N6-octanoyl-N2-(Nt-trityl-D-histidyl)-L-lysyl-L-phenylalanyl-L-tyrosine] (H-[dHis(Trt)]K(Octanoyl)FY-OH): the “ECmax (-fold induction over basal)” value in data set [1] is 16.8 ± 1.87 -fold induction over basal.
With `CCCCCCCC(=O)NCCCC[C@H](NC(=O)[C@@H](N)Cc1cn(C23CC4CC(CC(C4)C2)C3)cn1)C(=O)N[C@@H](Cc1ccccc1)C(=O)N[C@@H](Cc1ccc(O)cc1)C(=O)O` [HKFY-23, N2-(Nt-(adamantan-1-yl)-L-histidyl)-N6-octanoyl-L-lysyl-L-phenylalanyl-L-tyrosine], in data set [1], the “ECmax (-fold induction over basal)” value is 15 ± 1.37 -fold induction over basal.
Take `C[C@H](NC(=O)[C@H](CCC(N)=O)NC(=O)[C@H](CCC(N)=O)NC(=O)[C@H](CC(=O)O)NC(=O)[C@H](Cc1ccc(O)cc1)NC(=O)[C@H](Cc1ccccc1)NC(=O)[C@@H](N)Cc1cn(C(c2ccccc2)(c2ccccc2)c2ccccc2)cn1)C(=O)N[C@@H](CCCNC(=N)N)C(=O)N[C@@H](Cc1ccccc1)C(N)=O` [HKFY-52, (6S,9S,12S,15S,18S)-1-amino-6-(((S)-1-amino-1-oxo-3-phenylpropan-2-yl)carbamoyl)-18-((S)-2-((S)-2-((S)-2-amino-3-(1-trityl-1H-imidazol-4-yl)propanamido)-3-phenylpropanamido)-3-(4-hydroxyphenyl)propanamido)-12,15-bis(3-amino-3-oxopropyl)-1-imino-9-methyl-8,11,14,17-tetraoxo-2,7,10,13,16-pentaazaicosan-20-oic acid] (H-[His(Trt)]FYDQQARF-NH2): the “ECmax (-fold induction over basal)” value in data set [1] is listed as 15.5 ± 2.2 -fold induction over basal.
Same read-out and setting: the figure for `CCCCCCCC(=O)NCCCC[C@H](NC(=O)[C@@H](N)Cc1cn(C(c2ccccc2)(c2ccccc2)c2ccccc2)cn1)C(=O)N[C@H](Cc1ccc(F)cc1)C(=O)N[C@@H](Cc1ccc(O)cc1)C(=O)O` [HKFY-28, ((R)-2-((S)-2-((S)-2-amino-3-(1-trityl-1H-imidazol-4-yl)propanamido)-6-octanamidohexanamido)-3-(4-fluorophenyl)propanoyl)-L-tyrosine] (H-[His(Trt)]K(Octanoyl)[dPhe(4-F)]Y-OH) is 22.95 ± 2.58 -fold induction over basal; for `CCCCCCCC(=O)NCCCC[C@H](NC(=O)[C@@H](N)Cc1cn(C(c2ccccc2)(c2ccccc2)c2ccccc2)cn1)C(=O)N[C@@H](Cc1ccc(O)cc1)C(=O)N[C@@H](Cc1ccccc1)C(=O)O` [HKFY-47, N6-octanoyl-N2-(Nt-trityl-L-histidyl)-L-lysyl-L-tyrosyl-L-phenylalanine] (H-[His(Trt)]K(Octanoyl)YF-OH) it is 13 ± 1.7 -fold induction over basal; for `CCCCCCCC(=O)NCCCC[C@H](N)C(=O)N[C@@H](Cc1cn(C(c2ccccc2)(c2ccccc2)c2ccccc2)cn1)C(=O)N[C@@H](Cc1ccccc1)C(=O)N[C@@H](Cc1ccc(O)cc1)C(=O)O` [HKFY-55, Na-(N6-octanoyl-L-lysyl)-Nt-trityl-L-histidyl-L-phenylalanyl-L-tyrosine] (H-K(Octanoyl)[His(Trt)]FY-OH) it is 16.8 ± 2.5 -fold induction over basal.
With `CCCCCCCC(=O)NCCCC[C@H](NC(=O)[C@@H](N)Cc1cn(C(c2ccccc2)(c2ccccc2)c2ccccc2)cn1)C(=O)N[C@@H](Cc1ccccc1)C(=O)N[C@@H](Cc1ccc(O)cc1)C(=O)N[C@@H](Cc1c[nH]cn1)C(=O)N[C@@H](CCC(N)=O)C(=O)N[C@@H](CCC(N)=O)C(=O)N[C@@H](C)C(=O)N[C@@H](CCCNC(=N)N)C(=O)N[C@@H](Cc1ccccc1)C(N)=O` [HKFY-42, (S)-2-((2S,5S,8S,11S)-2-((1H-imidazol-4-yl)methyl)-11-((S)-2-amino-3-(1-trityl-1H-imidazol-4-yl)propanamido)-8-benzyl-5-(4-hydroxybenzyl)-4,7,10,17-tetraoxo-3,6,9,16-tetraazatetracosanamido)-N1-((S)-5-amino-1-(((S)-1-(((S)-1-(((S)-1-amino-1-oxo-3-phenylpropan-2-yl)amino)-5-guanidino-1-oxopentan-2-yl)amino)-1-oxopropan-2-yl)amino)-1,5-dioxopentan-2-yl)pentanediamide] (H-[His(Trt)]K(Octanoyl)FYHQQARF-NH2), the “ECmax (-fold induction over basal)” value in data set [1] is reported as 11.8 ± 0.02 -fold induction over basal.
Same read-out and setting: the figure for `CCCCCCCC(=O)NCCCC[C@H](NC(=O)[C@@H](N)Cc1cn(C(c2ccccc2)(c2ccccc2)c2ccccc2)cn1)C(=O)N[C@@H](CC(C)C)C(=O)N[C@@H](Cc1ccc(O)cc1)C(=O)O` [HKFY-51, N6-octanoyl-N2-(Nt-trityl-L-histidyl)-L-lysyl-L-leucyl-L-tyrosine] (H-[His(Trt)]K(Octanoyl)LY-OH) is 14.4 ± 1.9 -fold induction over basal.
For the molecule H(Trt)K(Octanoyl)FW [HKFY-46], in data set [2], the “EC50 (luciferase reporter)” value turned out to be 260 nM and the “ECmax (-fold induction over basal)” value was 20 -fold induction over basal.
For H(Trt)K(Octanoyl)YY [HKFY-48], in that order: 330 nM and 14.4 -fold induction over basal.
For H(Trt)K(Octanoyl)FYW [HKFY-44], in that order: 370 nM and 20 -fold induction over basal.
The matching figures for His(Trt)-Lys(Octanoyl)-Phe [HKFY-49]: 320 nM and 18.3 -fold induction over basal.
Consider Biotin-H(Trt)K(Octanoyl)[Bip]Y [HKFY-45], for which, in data set [2], the “EC50 (luciferase reporter)” value is 140 nM and the “ECmax (-fold induction over basal)” value is 21 -fold induction over basal.
Turning to H(Trt)K(Octanoyl)YF [HKFY-47], in data set [2], the “EC50 (luciferase reporter)” value was 300 nM and the “ECmax (-fold induction over basal)” value was 13 -fold induction over basal.
